Measured values from paper PMC7643960 (PLoS ONE, 2020).
Entries after “also recorded” stand apart in the source; their conditions may differ.

Assays:
[1] = tested on: equine dermal fibroblasts PriFri2; experiment: cell cycle investigation by flow cytometry (propidium iodide); format: cell-based, horse; conditions: double IC50 concentration
Experimental: (§1) Approximately 7.5 × 10^5 cells (MelDuWi) and 1.0 × 10^6 cells (PriFri2 and sRGO2) were seeded in 25 cm^2 cell culture flasks. […] Following 24 and 48 h of incubation, the cells were harvested by mild trypsinization and washed twice with phosphate-buffered saline (PBS) buffer (containing Mg^2+ and Ca^2+). Cells (1.0 × 10^6) were fixed with ethanol (70%, -20°C, for 24 h). After discarding the ethanol, the cells were washed in 1 mL PBS buffer (containing Mg^2+ and Ca^2+) and were centrifuged. The cell pellet was resuspended in 1 mL of staining PBS buffer (containing Mg^2+ and Ca^2+, 10 μg/mL RNASe [Thermofisher] and 15 μg/mL propidium iodide [Sigma-Aldrich, Munich, Germany]) and was incubated for 30 min at room temperature. Analyses were performed using the Attune® FACS machine (Life Technologies, Darmstadt, Germany) collecting data from the BL-2A channel. Doublet cells were excluded from the measurements by plotting BL-2A against BL-2H. A total of 20,000 events were collected for each cell cycle distribution. Each sample was measured in duplicate.

ES cells sRGO2 = experiment: as above; format: cell-based, horse; conditions: double IC50 concentration
Experimental: as §1

EMM cells MelDuWi [2] = experiment: as above; format: cell-based, horse; conditions: double IC50 concentration
Experimental: as §1

EMM cells MelDuWi [3] = conditions: read-out: 96-h IC50 value (sulforhodamine B assay); cited from earlier work
mice = conditions: cited from earlier work
horses affected by EMM = tested on: horses affected by EMM; parameters: method as in PMID 26772157; conditions: two EMM patients, once a week for 19 consecutive weeks; cited from earlier work
[4] = tested on: primary equine dermal fibroblasts PriFi2; experiment: crystal violet staining assay (CVS), proliferation; format: cell-based, horse; conditions: for IC50: mean (95% CI)
Experimental: (§2) All cells used for the experiments originate from different horses. Primary EMM cells (MelDuWi) and primary equine dermal fibroblasts (PriFi1, PriFi2) belong to the cell culture stock of the Clinic for Horses, University of Veterinary Medicine Hannover, Foundation, Hannover, Germany.
(§3) The proliferation assay was performed as published. […] Control cells were treated with medium only. The proportion of cells treated relative to untreated controls was determined by crystal violet staining and photometric absorbance measurement at the incubation time points mentioned above. Proliferation assays were performed in six to eight biological replicates with two technical replicates for each combination of cell type, incubation time and compound concentration.
(§4) Technical duplicates with a coefficient of variation of more than 20% were excluded from the cell assay analysis. […] Additional statistical data analysis was conducted with R 3.5.1.. A generalized additive model was fitted for each test (MTS and CVS) and cell type comparison (primary EMM cells and fibroblasts, and primary ES cells and fibroblasts) using the ‘mgcv’ package. Compound concentrations and the duration of incubation were modeled as tensor product smooth interacting with compound and cell line. Cell passage was added as a random effect. An appropriate distribution was selected by the visual inspection of residuals. The p-values were obtained by performing a Wald test for each parameter. Statistical significance was set at 0.05.

primary ES cells sRGO2 = experiment: crystal violet staining assay (CVS), proliferation; format: cell-based, horse; conditions: for IC50: mean (95% CI)
Experimental: as §2, §3, §4

[5] = tested on: primary EMM cells MelDuWi; experiment: crystal violet staining assay (CVS), proliferation; format: cell-based, horse; conditions: for IC50: mean (95% CI)
Experimental: as §2, §3, §4

primary ES cells sRGO1 = experiment: crystal violet staining assay (CVS), proliferation; format: cell-based, horse; conditions: for IC50: mean (95% CI)
Experimental: as §2, §3, §4

[6] = tested on: primary equine dermal fibroblasts PriFi1; experiment: crystal violet staining assay (CVS), proliferation; format: cell-based, horse; conditions: for IC50: mean (95% CI)
Experimental: as §2, §3, §4

primary EMM cells eRGO1 = experiment: crystal violet staining assay (CVS), proliferation; format: cell-based, horse; conditions: for IC50: mean (95% CI)
Experimental: as §2, §3, §4

[7] = tested on: human carbonic anhydrase isoenzyme I; parameters: method as in PMID 15664816; conditions: cited from earlier work
[8] = tested on: human carbonic anhydrase isoenzyme II; parameters: method as in PMID 15664816; conditions: cited from earlier work

C=C(C)[C@@H]1CC[C@]2(C(=O)OCC(N)(CO)CO)CC[C@]3(C)[C@H](CC[C@@H]4[C@@]5(C)CC[C@H](OC(C)=O)C(C)(C)[C@@H]5CC[C@]43C)[C@@H]12 [NVX-207, 3-acetyl-betulinic acid-2-amino-3-hydroxy-2-hydroxymethyl-propanoate]
Cell cycle percentage G1/G0 ([1]; PriFri2, 24 h): 43,1%
Cell cycle percentage M ([1]; PriFri2, 24 h): 1,3%
Cell cycle percentage S ([1]; PriFri2, 24 h): 10,8%
Cell cycle percentage SubG1 ([1]; PriFri2, 24 h): 44,1%
Cell cycle percentage G1/G0 ([1]; PriFri2, 48 h): 14,8%
Cell cycle percentage M ([1]; PriFri2, 48 h): 0,1%
Cell cycle percentage S ([1]; PriFri2, 48 h): 2,9%
Cell cycle percentage SubG1 ([1]; PriFri2, 48 h): 81,9%
Cell cycle percentage G1/G0 (ES cells sRGO2; sRGO2, 24 h): 76,6%
Cell cycle percentage M (ES cells sRGO2; sRGO2, 24 h): 6,4%
Cell cycle percentage S (ES cells sRGO2; sRGO2, 24 h): 15,8%
Cell cycle percentage SubG1 (ES cells sRGO2; sRGO2, 24 h): 0,6%
Cell cycle percentage G1/G0 (ES cells sRGO2; sRGO2, 48 h): 64,5%
Cell cycle percentage M (ES cells sRGO2; sRGO2, 48 h): 3,9%
Cell cycle percentage S (ES cells sRGO2; sRGO2, 48 h): 13,7%
Cell cycle percentage SubG1 (ES cells sRGO2; sRGO2, 48 h): 17,1%
Cell cycle percentage G1/G0 (EMM cells MelDuWi [2]; 24 h): 77,4%
Cell cycle percentage M (EMM cells MelDuWi [2]; 24 h): 0,8%
Cell cycle percentage S (EMM cells MelDuWi [2]; 24 h): 14,4%
Cell cycle percentage SubG1 (EMM cells MelDuWi [2]; 24 h): 7,1%
Cell cycle percentage G1/G0 (EMM cells MelDuWi [2]; 48 h): 26,8%
Cell cycle percentage M (EMM cells MelDuWi [2]; 48 h): 0,3%
Cell cycle percentage S (EMM cells MelDuWi [2]; 48 h): 12,9%
IC50 (EMM cells MelDuWi [3]): 5.6 µM
side effects after intravenous application (mice): did not lead to any side effects
safety of intralesional injection (horses affected by EMM): proved to be safe; also recorded: well tolerated
IC50 ([4]; PriFi2, 5 h): 14 µM
IC50 ([4]; PriFi2, 24 h): 8 µM
IC50 ([4]; PriFi2, 48 h): 7 µM
IC50 ([4]; PriFi2, 96 h): < 1 µM
NVX-207 exceeded BBSs' antiproliferative effects ([4]; PriFi2, after 48 h, CVS): ~6 times
IC50 (primary ES cells sRGO2; sRGO2, 5 h): 6 µM
IC50 (primary ES cells sRGO2; sRGO2, 24 h): < 1 µM
IC50 (primary ES cells sRGO2; sRGO2, 48 h): < 1 µM
NVX-207 exceeded BBSs' antiproliferative effects (primary ES cells sRGO2; sRGO2, after 48 h, CVS): ~29 times
IC50 ([5]; 5 h): 20 µM
IC50 ([5]; 24 h): 16 µM
IC50 ([5]; 48 h): 12 µM
IC50 ([5]; 96 h): 4 µM
NVX-207 exceeded BBSs' antiproliferative effects ([5]; after 48 h, CVS): ~3 times
IC50 (primary ES cells sRGO1; sRGO1, 5 h): 7 µM
IC50 (primary ES cells sRGO1; sRGO1, 24 h): 7 µM
IC50 (primary ES cells sRGO1; sRGO1, 48 h): < 1 µM
NVX-207 exceeded BBSs' antiproliferative effects (primary ES cells sRGO1; sRGO1, after 48 h, CVS): about 23 times
IC50 ([6]; PriFi1, 5 h): 11 µM
IC50 ([6]; PriFi1, 24 h): 4 µM
IC50 ([6]; PriFi1, 48 h): 2 µM
IC50 ([6]; PriFi1, 96 h): < 1 µM
NVX-207 exceeded BBSs' antiproliferative effects ([6]; PriFi1, after 48 h, CVS): about 23 times
IC50 (primary EMM cells eRGO1; eRGO1, 5 h): 10 µM
IC50 (primary EMM cells eRGO1; eRGO1, 24 h): 5 µM
IC50 (primary EMM cells eRGO1; eRGO1, 48 h): < 1 µM
IC50 (primary EMM cells eRGO1; eRGO1, 96 h): < 1 µM
NVX-207 exceeded BBSs' antiproliferative effects (primary EMM cells eRGO1; eRGO1, after 48 h, CVS): about 25 times

C=C(C)[C@@H]1CC[C@]2(COS(N)(=O)=O)CC[C@]3(C)[C@H](CC[C@@H]4[C@@]5(C)CC[C@H](OS(N)(=O)=O)C(C)(C)[C@@H]5CC[C@]43C)[C@@H]12 [BBS, (3β)-Lup-20(29)-ene-3,28-diol, 3,28-disulfamate]
Cell cycle percentage G1/G0 ([1]; PriFri2, 24 h): 79,1%
Cell cycle percentage M ([1]; PriFri2, 24 h): 1,0%
Cell cycle percentage S ([1]; PriFri2, 24 h): 12,1%
Cell cycle percentage SubG1 ([1]; PriFri2, 24 h): 7,1%
Cell cycle percentage G1/G0 ([1]; PriFri2, 48 h): 73,7%
Cell cycle percentage M ([1]; PriFri2, 48 h): 0,9%
Cell cycle percentage S ([1]; PriFri2, 48 h): 10,8%
Cell cycle percentage SubG1 ([1]; PriFri2, 48 h): 13,7%
Cell cycle percentage G1/G0 (ES cells sRGO2; sRGO2, 24 h): 71,9%
Cell cycle percentage M (ES cells sRGO2; sRGO2, 24 h): 1,6%
Cell cycle percentage S (ES cells sRGO2; sRGO2, 24 h): 21,8%
Cell cycle percentage SubG1 (ES cells sRGO2; sRGO2, 24 h): 5,3%
Cell cycle percentage G1/G0 (ES cells sRGO2; sRGO2, 48 h): 63,2%
Cell cycle percentage M (ES cells sRGO2; sRGO2, 48 h): 1,8%
Cell cycle percentage S (ES cells sRGO2; sRGO2, 48 h): 16,7%
Cell cycle percentage SubG1 (ES cells sRGO2; sRGO2, 48 h): 17,5%
Cell cycle percentage G1/G0 (EMM cells MelDuWi [2]; 24 h): 68,2%
Cell cycle percentage M (EMM cells MelDuWi [2]; 24 h): 0,5%
Cell cycle percentage S (EMM cells MelDuWi [2]; 24 h): 23,9%
Cell cycle percentage SubG1 (EMM cells MelDuWi [2]; 24 h): 6,7%
Cell cycle percentage G1/G0 (EMM cells MelDuWi [2]; 48 h): 48,2%
Cell cycle percentage M (EMM cells MelDuWi [2]; 48 h): 0,3%
Cell cycle percentage S (EMM cells MelDuWi [2]; 48 h): 7,6%
inhibition of carbonic anhydrase I [7]: efficient inhibitor
inhibition of carbonic anhydrase II [8]: efficient inhibitor
IC50 ([4]; PriFi2, 5 h): > 100 µM
IC50 ([4]; PriFi2, 24 h): 62 µM
IC50 ([4]; PriFi2, 48 h): 39 µM
IC50 ([4]; PriFi2, 96 h): 16 µM
IC50 (primary ES cells sRGO2; sRGO2, 5 h): > 100 µM
IC50 (primary ES cells sRGO2; sRGO2, 24 h): 38 µM
IC50 (primary ES cells sRGO2; sRGO2, 48 h): 29 µM
IC50 ([5]; 5 h): > 100 µM
IC50 ([5]; 24 h): 50 µM
IC50 ([5]; 48 h): 36 µM
IC50 ([5]; 96 h): 16 µM
IC50 (primary ES cells sRGO1; sRGO1, 5 h): > 100 µM
IC50 (primary ES cells sRGO1; sRGO1, 24 h): 40 µM
IC50 (primary ES cells sRGO1; sRGO1, 48 h): 23 µM
IC50 ([6]; PriFi1, 5 h): > 100 µM
IC50 ([6]; PriFi1, 24 h): 52 µM
IC50 ([6]; PriFi1, 48 h): 42 µM
IC50 ([6]; PriFi1, 96 h): 17 µM
IC50 (primary EMM cells eRGO1; eRGO1, 5 h): > 100 µM
IC50 (primary EMM cells eRGO1; eRGO1, 24 h): 42 µM
IC50 (primary EMM cells eRGO1; eRGO1, 48 h): 25 µM
IC50 (primary EMM cells eRGO1; eRGO1, 96 h): 15 µM
